Key:
Format in all cases: in vivo
[1] = tested on: Kochia (Kochia scoparia); experiment: Test A preemergence; conditions: Bassia scoparia, pre-emergence, 240 h, preemergence, 0 to 100 scale where 0 is no effect and 100 is complete control, read-out: Kochia plant response rating
How it was run: (§1)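 Seeded soil received test chemicals as a preemergence directed spray, and seedlings at one to two leaves, 2–10 cm tall, received them postemergence, in a non-phytotoxic, surfactant-containing solvent mixture. Pots were held in a greenhouse for approximately 10 d, then rated for injury from 0, no effect, to 100, complete control.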

[2] = tested on: barnyardgrass (Echinochloa crus-galli); experiment: Test A preemergence; conditions: Echinochloa crus-galli, pre-emergence, 240 h, preemergence, 0 to 100 scale where 0 is no effect and 100 is complete control, read-out: Barnyardgrass plant response rating
How it was run: as §1

[3] = tested on: giant foxtail (Setaria faberii); experiment: Test A preemergence; conditions: Setaria faberi, pre-emergence, 240 h, preemergence, 0 to 100 scale where 0 is no effect and 100 is complete control, read-out: Foxtail, Giant plant response rating
How it was run: as §1

[4] = tested on: pigweed (Amaranthus retroflexus); experiment: Test A preemergence; conditions: Amaranthus retroflexus, pre-emergence, 240 h, preemergence, 0 to 100 scale where 0 is no effect and 100 is complete control, read-out: Pigweed plant response rating
[5] = tested on: ragweed (common ragweed, Ambrosia elatior); experiment: Test A preemergence; conditions: Ambrosia artemisiifolia, pre-emergence, 240 h, preemergence, 0 to 100 scale where 0 is no effect and 100 is complete control, read-out: Ragweed plant response rating
How it was run: as §1

[6] = tested on: ryegrass, Italian (Italian ryegrass, Lolium multiflorum); experiment: Test A preemergence; conditions: Lolium multiflorum, pre-emergence, 240 h, preemergence, 0 to 100 scale where 0 is no effect and 100 is complete control, read-out: Ryegrass, Italian plant response rating
How it was run: as §1

[7] = tested on: Galium (catchweed bedstraw, Galium aparine); experiment: Test A postemergence; conditions: Galium, post-emergence, 240 h, postemergence
How it was run: as §1

[8] = tested on: Kochia (Kochia scoparia); experiment: Test A postemergence; conditions: Bassia scoparia, post-emergence, 240 h, postemergence
How it was run: as §1

[9] = tested on: barnyardgrass (Echinochloa crus-galli); experiment: Test A postemergence; conditions: Echinochloa crus-galli, post-emergence, 240 h, postemergence
How it was run: as §1

[10] = tested on: blackgrass (Alopecurus myosuroides); experiment: Test A postemergence; conditions: Alopecurus myosuroides, post-emergence, 240 h, postemergence
How it was run: as §1

[11] = tested on: corn (Zea mays); experiment: Test A postemergence; conditions: Zea mays, post-emergence, 240 h, postemergence
How it was run: as §1

[12] = tested on: giant foxtail (Setaria faberii); experiment: Test A postemergence; conditions: Setaria faberi, post-emergence, 240 h, postemergence
How it was run: as §1

[13] = tested on: pigweed (Amaranthus retroflexus); experiment: Test A postemergence; conditions: Amaranthus retroflexus, post-emergence, 240 h, postemergence
How it was run: as §1

[14] = tested on: ragweed (common ragweed, Ambrosia elatior); experiment: Test A postemergence; conditions: Ambrosia artemisiifolia, post-emergence, 240 h, postemergence
How it was run: as §1

[15] = tested on: ryegrass, Italian (Italian ryegrass, Lolium multiflorum); experiment: Test A postemergence; conditions: Lolium multiflorum, post-emergence, 240 h, postemergence
How it was run: as §1

[16] = tested on: wheat (Triticum aestivum); experiment: Test A postemergence; conditions: Triticum aestivum, post-emergence, 240 h, postemergence
How it was run: as §1

[17] = 125 g ai/ha, visual injury rating, approximately 10 d

In the case of `N#Cc1ccc([C@H]2CNC(=O)[C@@H]2C(=O)Nc2cccc(F)c2F)cc1` [Compound 1206], the pest or weed control at 125 g/ha [1, 17] is reported as 60%, the pest or weed control at 500 g/ha ([1]; 500 g ai/ha) is reported as 100% and the pest or weed control at 125 g/ha [2, 17] is reported as 70%. For the same molecule, the pest or weed control at 500 g/ha ([2]; 500 g ai/ha) was 100%, the pest or weed control at 125 g/ha [3, 17] was 80% and the pest or weed control at 500 g/ha ([3]; 500 g ai/ha) was 90%. It also gave a pest or weed control at 125 g/ha [4, 17] of 50%, a pest or weed control at 500 g/ha ([4]; 500 g ai/ha) of 90% and a pest or weed control at 125 g/ha [5, 17] of 0%. The pest or weed control at 500 g/ha ([5]; 500 g ai/ha) was 60%, the pest or weed control at 125 g/ha [6, 17] was 0% and the pest or weed control at 500 g/ha ([6]; 500 g ai/ha) was 0%. The pest or weed control at 125 g/ha ([7]; 125 g ai/ha, visual injury vs untreated controls after approx. 10 d, 0 = no effect, 100 = complete control, read-out: Galium plant response rating (0 to 100 scale)) was 30%, the pest or weed control at 500 g/ha ([7]; 500 g ai/ha, 0 to 100 scale, 0 is no effect, 100 is complete control, read-out: Galium plant response rating) was 50% and the pest or weed control at 125 g/ha ([8]; 125 g ai/ha, visual injury vs untreated controls after approx. 10 d, 0 = no effect, 100 = complete control, read-out: Kochia plant response rating (0 to 100 scale)) was 50%. The pest or weed control at 500 g/ha ([8]; 500 g ai/ha, 0 to 100 scale, 0 is no effect, 100 is complete control, read-out: Kochia plant response rating) was 50%, the pest or weed control at 125 g/ha ([9]; 125 g ai/ha, visual injury vs untreated controls after approx. 10 d, 0 = no effect, 100 = complete control, read-out: Barnyardgrass plant response rating (0 to 100 scale)) was 70% and the pest or weed control at 500 g/ha ([9]; 500 g ai/ha, 0 to 100 scale, 0 is no effect, 100 is complete control, read-out: Barnyardgrass plant response rating) was 100%. It also gave a pest or weed control at 125 g/ha ([10]; 125 g ai/ha, visual injury vs untreated controls after approx. 10 d, 0 = no effect, 100 = complete control, read-out: Blackgrass plant response rating (0 to 100 scale)) of 0%, a pest or weed control at 500 g/ha ([10]; 500 g ai/ha, 0 to 100 scale, 0 is no effect, 100 is complete control, read-out: Blackgrass plant response rating) of 0% and a plant injury at 125 g/ha ([11]; 125 g ai/ha, visual injury vs untreated controls after approx. 10 d, 0 = no effect, 100 = complete control, read-out: Corn plant response rating (0 to 100 scale)) of 0%. The plant injury at 500 g/ha ([11]; 500 g ai/ha, 0 to 100 scale, 0 is no effect, 100 is complete control, read-out: Corn plant response rating) was 0%, the pest or weed control at 125 g/ha ([12]; 125 g ai/ha, visual injury vs untreated controls after approx. 10 d, 0 = no effect, 100 = complete control, read-out: Foxtail, Giant plant response rating (0 to 100 scale)) was 50% and the pest or weed control at 500 g/ha ([12]; 500 g ai/ha, 0 to 100 scale, 0 is no effect, 100 is complete control, read-out: Foxtail, Giant plant response rating) was 80%. It also gave a pest or weed control at 125 g/ha ([13]; 125 g ai/ha, visual injury vs untreated controls after approx. 10 d, 0 = no effect, 100 = complete control, read-out: Pigweed plant response rating (0 to 100 scale)) of 0%, a pest or weed control at 500 g/ha ([13]; 500 g ai/ha, 0 to 100 scale, 0 is no effect, 100 is complete control, read-out: Pigweed plant response rating) of 30% and a pest or weed control at 125 g/ha ([14]; 125 g ai/ha, visual injury vs untreated controls after approx. 10 d, 0 = no effect, 100 = complete control, read-out: Ragweed plant response rating (0 to 100 scale)) of 0%. The pest or weed control at 500 g/ha ([14]; 500 g ai/ha, 0 to 100 scale, 0 is no effect, 100 is complete control, read-out: Ragweed plant response rating) was 0%, the pest or weed control at 125 g/ha ([15]; 125 g ai/ha, visual injury vs untreated controls after approx. 10 d, 0 = no effect, 100 = complete control, read-out: Ryegrass, Italian plant response rating (0 to 100 scale)) was 0% and the pest or weed control at 500 g/ha ([15]; 500 g ai/ha, 0 to 100 scale, 0 is no effect, 100 is complete control, read-out: Ryegrass, Italian plant response rating) was 0%. For the same molecule, the plant injury at 125 g/ha ([16]; 125 g ai/ha, visual injury vs untreated controls after approx. 10 d, 0 = no effect, 100 = complete control, read-out: Wheat plant response rating (0 to 100 scale)) was 0% and the plant injury at 500 g/ha ([16]; 500 g ai/ha, 0 to 100 scale, 0 is no effect, 100 is complete control, read-out: Wheat plant response rating) was 0%.

Source: patent US12077503B2, “Substituted cyclic amides and their use as herbicides” (FMC CORPORATION, priority 2015, dated 2024)
